Patent US4937235A, “3- or 4-substituted oxotremorine derivatives” (American Cyanamid Company, priority 1989, dated 1990)
Structures can show the parent of a compound that is named as a salt.

Legend:
[1] = biological target: muscarinic cholinergic receptor; test: [3H] Quinuclidinyl Benzilate (3H-QNB) Binding Assay; parameters: species or system rat; settings: pH 7.4
[2] = biological target: muscarinic cholinergic receptor; test: [3H]-Cis-methyldioxolane (3H-CD) Binding Assay (High Affinity); settings: rat cerebral cortex, 1.0 nM 3H-CD, 25° C., 120 minutes, pH 7.4
[3] = rat cerebral cortex, 0.25 nM 3H-QNB, 25° C., 120 minutes

Structure (SMILES) | IC50 [1, 3] [µM] | IC50 [2] [µM] | IC50 [1] [µM]
CNC(=O)O[C@H]1CCN(CC#CCN2CCCCC2)C1=O [(S)-3-[[(Methylamino)carbonyl]oxy]-1-[4-(1-piperidinyl)-2-butynyl]-2-pyrrolidinone] | 744 | 87 | 
O=C1[C@@H](S)CCN1CC#CCN1CCCC1 [(S)-3-Mercapto-1-[4-(1-pyrrolidinyl)-2-butynyl]-2-pyrrolidinone, monohydrochloride] |  | 0.048 | 2
CN(C)CC#CCN1C[C@H](O)CC1=O [(R)-1-[4-(Dimethylamino)-2-butynyl]-4-hydroxy-2-pyrrolidinone] |  | 0.578 | 2350
C[N+](C)(C)CC#CCN1CCCC1=O [N,N,N-Trimethyl-4-(2-oxo-1-pyrrolidinyl)-2-butyn-1-aminium iodide, reference compound] |  | 0.003 | 18
CC(=O)N(C)CC#CCN1CCC(O)C1 (racemic) [(Racemic)-N-[4-(3-Hydroxy-1-pyrrolidinyl)-2-butynyl]-N-methyl acetamide] |  | 2.01 | 1190
O=C1CCCN1CC#CCN1CCC(O)C1 (racemic) [(Racemic)-1-[4-(3-Hydroxy-1-pyrrolidinyl)-2-butynyl]-2-pyrrolidinone] |  | 0.425 | 395
CC(=O)S[C@@H]1CCN(CC#CCN2CCCCC2)C1=O [(R)-S-[2-Oxo-1-[4-(1-piperidinyl)-2-butynyl]-3-pyrrolidinyl]] [(R)-S-[2-Oxo-1-[4-(1-piperidinyl)-2-butynyl]-3-pyrrolidinyl]ethanethioic acid ester] |  | 0.03 | 4.3
CC(=O)OC1CCN(CC#CCN2CCCC2=O)C1 (racemic) [(Racemic)-1-[4-[3-(Acetyloxy)-1-pyrrolidinyl]-2-butynyl]-2-pyrrolidinone] |  | 1.33 | 313
CC(=O)O[C@@H]1CC(=O)N(CC#CCN2CCCCC2)C1 [(R)-4-(Acetyloxy)-1-[4-(1-piperidinyl)-2-butynyl]-2-pyrrolidinone] |  | 8.08 | 181
CO[C@H]1CCN(CC#CCN2CCCCC2)C1=O [(S)-3-Methoxy-1-[4-(1-piperidinyl)-2-butynyl]-2-pyrrolidinone] |  | 33.1 | 673
CN(C)CC#CCN1CC[C@H](O[Si](C)(C)C(C)(C)C)C1=O [(S)-1-[4-(Dimethylamino)-2-butynyl]-3-[[(1,1-dimethylethyl)dimethylsilyl]oxy]-2-pyrrolidinone] |  | 19.5 | 200
CN(C)CC#CCN1CCCC1=O [1-[4-(Dimethylamino)-2-butynyl]-2-pyrrolidinone, reference compound] |  | 0.044 | 163
CC(=O)O[C@H]1CCN(CC#CCN2CCCC2=O)C1 [(S)-1-[4-[3-(Acetyloxy)-1-pyrrolidinyl]-2-butynyl]-2-pyrrolidinone] |  | 2.02 | 2320
COC1CCN(CC#CCN2CCCC2=O)C1 (racemic) [(Racemic)-1-[4-(3-Methoxy-1-pyrrolidinyl)-2-butytnyl]-2-pyrrolidinone, (Racemic)-1-[4-(3-Methoxy-1-pyrrolidinyl)-2-butynyl]-2-pyrrolidinone] |  | 1.75 | 110
CC(=O)O[C@H]1CC(=O)N(CC#CCN2CCCC2)C1 [(S)-4-(Acetyloxy)-1-[4-(1-pyrrolidinyl)-2-butynyl]-2-pyrrolidinone] |  | 6.11 | 112
O=C1[C@@H](S)CCN1CC#CCN1CCCCC1 [(S)-3-Mercapto-1-[4-(1-piperidinyl)-2-butynyl]-2-pyrrolidinone, monohydrochloride] |  | 0.955 | 2.5
CC(=O)S[C@H]1CCN(CC#CCN2CCCCC2)C1=O [(S)-S-[2-Oxo-1-[4-(1-piperidinyl)-2-butynyl]-3-pyrrolidinyl]ethanethioic acid ester] |  | 2.43 | 14
CC(=O)O[C@H]1CCN(CC#CCN(C)C)C1=O [(S)-3-(Acetyloxy)-1-[4-(dimethylamino)-2-butynyl]-2-pyrrolidinone] |  | 0.521 | 1360
CC(=O)S[C@H]1CCN(CC#CCN(C)C)C1=O [(S)-S-[1-[4-(Dimethylamino)-2-butynyl]-2-oxo-3-pyrrolidinyl]ethanethioic acid ester] |  | 1.53 | 40
CO[C@@H]1CCN(CC#CCN2CCCCC2)C1=O [(R)-3-Methoxy-1-[4-(1-piperidinyl)-2-butynyl]-2-pyrrolidinone] |  | 28.1 | 459
O=C1C(S)CCN1CC#CCN1CCCCC1 (centres unmarked) [3-Mercapto-1-[4-(1-piperidinyl)-2-butynyl]-2-pyrrolidinone] |  | 0.587 | 11
CC(=O)O[C@H]1CC(=O)N(CC#CCN2CCCCC2)C1 [(S)-4-(Acetyloxy)-1-[4-(1-piperidinyl)-2-butynyl]-2-pyrrolidinone] |  | 9.57 | 159
CC(=O)O[C@H]1CCN(CC#CCN2CCCCC2)C1=O [(S)-3-(Acetyloxy)-1-[4-(1-piperidinyl)-2-butynyl]-2-pyrrolidinone] |  | 1.45 | 367
CC(=O)S[C@H]1CCN(CC#CCN2CCCC2)C1=O [(S)-S-(2-Oxo-1-[4-(1-pyrrolidinyl)-2-butynyl]-3-pyrrolidinyl]ethanethioic acid ester] |  | 0.07 | 4

Structure (SMILES) | IC50 [1, 3] [µM] | IC50 [2] [µM] | IC50 [1] [µM]
O=C1[C@@H](O)CCN1CC#CCN1CCCCC1 [(S)-3-Hydroxy-1-[4-(1-piperidinyl)-2-butynyl]-2-pyrrolidinone] |  | 0.476 | 22
CC(=O)O[C@@H]1CCN(CC#CCN2CCCC2)C1=O [(R)-3-(Acetyloxy)-1-[4-(1-pyrrolidinyl)-2-butynyl]-2-pyrrolidinone] |  | 0.547 | 231
O=C1C[C@@H](O)CN1CC#CCN1CCCC1 [(R)-4-Hydroxy-1-[4-(1-pyrrolidinyl)-2-butynyl]-2-pyrrolidinone] |  | 0.053 | 52
O=C1[C@H](SS[C@@H]2CCN(CC#CCN3CCCCC3)C2=O)CCN1CC#CCN1CCCCC1 [[R-(R*,R*)]-3,3'-dithiobis[1-[4-(1-piperidinyl)-2-butynyl]]-2-pyrrolidinone] | 9 | 1.83 | 
O=C1C[C@@H](O)CN1CC#CCN1CCCCC1 [(R)-4-Hydroxy-1-[4-(1-piperidinyl)-2-butynyl]-2-pyrrolidinone] |  | 3.79 | 166
CN(C)CC#CCN1C[C@@H](O)CC1=O |  | 10.1 | 1510
CC(=O)S[C@@H]1CCN(CC#CCN(C)C)C1=O [(R)-S-[1-[4-(Dimethylamino)-2-butynyl]-2-oxo-3-pyrrolidinyl]ethanethioic acid ester] |  | 0.062 | 20
CC(=O)O[C@@H]1CCN(CC#CCN2CCCCC2)C1=O [(R)-3-(Acetyloxy)-1-[4-(1-piperidinyl)-2-butynyl]-2-pyrrolidinone] |  | 4.47 | 419
O=C1[C@H](O)CCN1CC#CCN1CCCC1 [(R)-3-Hydroxy-1-[4-(1-pyrrolidinyl)-2-butynyl]-2-pyrrolidinone] |  | 0.134 | 47
CN(C)CC#CCN1CC[C@@H](O)C1=O [(R)-1-[4-(Dimethylamino)-2-butynyl]-3-hydroxy-2-pyrrolidinone] |  | 0.578 | 1470
O=C1C[C@H](O)CN1CC#CCN1CCCC1 [(S)-4-Hydroxy-1-[4-(1-pyrrolidinyl)-2-butynyl]-2-pyrrolidinone] |  | 4.91 | 270
CC(C)(C)[Si](C)(C)O[C@H]1CCN(CC#CCN2CCCCC2)C1=O [(S)-3-[[(1,1-Dimethylethyl)dimethylsilyl]oxy]-1-[4-(1-piperidinyl)-2-butynyl]-2-pyrrolidinone] |  | 0.161 | 24
CC(=O)O[C@@H]1CC(=O)N(CC#CCN(C)C)C1 [(R)-4-(Acetyloxy)-1-[4-(dimethylamino)-2-butynyl]-2-pyrrolidinone] |  | 11.5 | 1780
CC(=O)S[C@@H]1CCN(CC#CCN2CCCCC2)C1=O [(R)-S-[2-Oxo-1-(4-piperidinyl-2-butynyl)-3-pyrrolidinyl]etha] [(R)-S-[2-Oxo-1-(4-piperidinyl-2-butynyl)-3-pyrrolidinyl]ethanethioic acid ester] |  |  | 91
O=C(O[C@@H]1CCN(CC#CCN2CCCC2)C1=O)c1ccc([N+](=O)[O-])cc1 [(R)-3-[(4-Nitrobenzoyl)oxy]-1-[4-(1-pyrrolidinyl)-2-butynyl]-2-pyrrolidinone] | 59 | 4.29 | 
CC(=O)O[C@H]1CC(=O)N(CC#CCN(C)C)C1 [(S)-4-(Acetyloxy)-1-[4-(dimethylamino)-2-butynyl]-2-pyrrolidinone] |  | 41.9 | 1350
O=C1[C@H](S)CCN1CC#CCN1CCCC1 [(R)-3-Mercapto-1-[4-(1-pyrrolidinyl)-2-butynyl]-2-pyrrolidinone] |  | 0.007 | 1
CO[C@H]1CCN(CC#CCN2CCCC2)C1=O [(S)-3-Methoxy-1-[4-(1-pyrrolidinyl)-2-butynyl]-2-pyrrolidinone] |  | 1.17 | 433
CO[C@@H]1CCN(CC#CCN2CCCC2)C1=O [(R)-3-Methoxy-1-[4-(1-pyrrolidinyl)-2-butynyl]-2-pyrrolidinone] |  | 1.97 | 283
O=C1C[C@H](O)CN1CC#CCN1CCCCC1 [(S)-4-Hydroxy-1-[4-(1-piperidinyl)-2-butynyl]-2-pyrrolidinone] |  | 36.1 | 200
O=C1[C@@H](O)CCN1CC#CCN1CCCC1 [(S)-3-Hydroxy-1-[4-(1-pyrrolidinyl)-2-butynyl]-2-pyrrolidinone] |  | 0.009 | 11
O=C1[C@H](O)CCN1CC#CCN1CCCCC1 [(R)-3-Hydroxy-1-[4-(1-piperidinyl)-2-butynyl]-2-pyrrolidinone] |  | 3.46 | 84
CC(=O)S[C@@H]1CCN(CC#CCN2CCCCC2)C1=O [(R)-S-[2-Oxo-1-(4-piperidinyl-2-butynyl)-3-pyrrolidinyl]ethanethioic acid ester] |  | 0.946 | 
